# In patent publication US20240350647A1, “STING SENSITIZING AGENTS” (STipe Therapeutics ApS, priority 2023, published 2024):
# Where a SMILES comes first, the peptide text is derived from it. Bridges are numbered along the chain shown (N, C = ends). [ ]: non-standard residue; d: D form. The star is where a group is joined. C16 diacid = O=C(O)CCCCCCCCCCCCCCC(=O)*; AEEA = NCCOCCOCC(=O)O
# What was measured:
# [1] = Pharmacokinetics after intravenous bolus, rat; type: in vivo; conditions: 10 mg/kg bolus IV
# Protocol: Test agents were formulated in 2% (v/v) propylene glycol in 25 mM HEPES, pH 7.4 and administered with a bolus injection at 10.0 mg/kg via the tail vain to male CD-1 mice (Charles River Laboratories) or male Wistar rats (Charles River Laboratories), or with a 30-min intravenous infusion at 4 mg/kg to male cynomolgus monkeys.
# Blood samples were collected at 2.5, 5, 10, 30, 60, 120, 240 and 480 minutes after administration (mouse and rat), or at 5, 15, 30, 60, 120, 240, 360, 480 and 1440 min (Agent 1) or at 5, 15, 30, 45, 60, 90, 150, 240 and 480 min (Agent 2) after the start of infusion in monkeys. Samples were immediately mixed with a protease inhibitor cocktail (Roche cOmplete™ EDTA-free) before being cooled and centrifuged for plasma separation. Plasma samples were frozen and stored at −20° C. until analysis.
# To rat samples, blank rat plasma was added up to a volume of 100 μl. […]
# Mouse and rat samples: Separation was done with a C18 column (Phenomenex Kinetex XB—C18 (100×2.1 mm, 1.7 μm)), using a gradient between 1% formic acid in water and 2% DMSO in acetonitrile (Agent 1) or acetonitrile (Agent 2). […] The range of quantitation was 4-20,000 ng/mL.
# Non-compartmental PK analysis on plasma concentration versus time data was analyzed by non-compartmental approaches using the WinNonlin software program (version 6.3 or above, Pharsight, Mountain View, CA). […]
# FIG. 10A = conditions: mouse, in vivo, iv, 10 mg/kg
# Protocol: Table printed on a drawing sheet, FIG. 10A
# The patent's description of the figure: FIGS. 10A-10C. Pharmacokinetic profile and parameter for peptides after intravenous administration. FIG. 10A) Mouse PK data (10 mg/kg, bolus IV, n=3 per timepoint). FIG. 10B) Rat PK data (10 mg/kg, bolus IV, n=3 per timepoint). FIG. 10C) Non-human primate (NHP) PK data (4 mg/kg, 30 min IV infusion, n=3). Error bars represent the standard deviation (SD).
# First reader's note: Mouse PK parameters; the legend of the plot on the same sheet gives 10 mg/kg (IV) for both agents.
# CD4+ T cells = assay: Dendritic Cell-T cell (DC-T) proliferation assay (ProImmune); conditions: 22 donors; Percentage Stimulation above Background ≥0.5%, SEM=2; peptides 0.34 μM
# Description: A panel of peripheral blood mononuclear cell (PBMC) samples from healthy human donors was selected from the ProImmune Ltd (UK) cell bank. Each PBMC sample was HLA (Human Leukocyte Antigen)-typed and stored in liquid nitrogen (vapor-phase) prior to use. The panel was selected so that HLA class II alleles known to be highly expressed in the global population were well represented (data not shown). Donors were predominantly selected by DRB1 allele expression.
# A Dendritic Cell-T cell (DC-T) proliferation assay (ProImmune Ltd) was used to identify the presence or potential T cell epitopes within the peptides. Adherent donor PBMCs were cultured with appropriate growth factors to generate monocyte-derived DCs. DCs were then loaded with a control (control 1 and control 2), the peptide (Agent 1, Agent 2, and Agent 3, see FIG. 8A) or left untreated. The peptides were loaded at a final concentration of 0.34 μM.
# Mature antigen-loaded DCs were then co-cultured at a fixed ratio with autologous CFSE-labelled T cells in multi-well plates. Each test condition was set up in eight replicate wells and cells were incubated for 7 days. At the end of the incubation period, cell samples were stained with anti-CD4 antibody, then washed and fixed for by flow cytometric analysis. Proliferation was determined by measuring a decrease in CFSE intensity.
# Data were compiled to determine antigen-induced proliferation per individual donor, calculated as Percentage Stimulation above Background. The frequency of positive donor cell responses (Percentage Antigenicity) was calculated as the proportion of responding donors out of total donors. Values were then standardized against the strength of response (an average of the Percentage Stimulation value obtained across accepted donors for each protein) to give a response index (RI).
# Data obtained by flow cytometric evaluation of cell samples was analyzed using FlowJo Software (Tree Star, Inc.). The number of CFSE-dim (i.e., proliferating) cells was determined for each sample in eight replicate wells. Counts for the CD4^+ CFSE dim population in each sample were expressed as a proportion of the total CD4^+ population. The eight replicate values were then used to calculate Percentage Stimulation above Background (proportion of CD4^+ CFSE dim cells with antigen stimulation minus the proportion of CD4^+ CFSE dim cells without antigen stimulation).
# Background threshold values are based on data from unstimulated cells for which a maximum acceptable resting proliferation threshold is established.
# In evaluating antigenicity, it is also appropriate to take account of the frequency of donor cell responses across the study cohort. A positive response (Percentage Stimulation above Background ≥0.5%) in 2 or more independent donor samples is considered indicative of a potential T cell epitope.
# Depending on the size of the study, (20, 40 or 50 donors), two responding donors sets a threshold of 10%, 5% or 4% respectively. Thus, following calculation of Percentage Stimulation above Background, the frequency of positive donor cell responses (Percentage Antigenicity) is expressed as the proportion of responding donors out of total accepted donors screened.
# When calculating the antigenicity of a protein it is important to consider the strength of a response as well as the frequency of that response. This is because some binding responses may be pan-allele, but these responses may not be very strong. The strength of positive donor cell responses was determined by taking an average of the percentage stimulation value obtained across accepted donors for each protein. Determining a Response Index (RI) through the multiplication of strength and frequency values is more representative of the level of antigenicity.
compound,measurement,setting,value
CC[C@H](C)[C@H](NC(=O)[C@H](CC(N)=O)NC(=O)[C@H](CCCCN)NC(=O)[C@H](C)NC(=O)[C@H](CCCCN)NC(=O)[C@H](CCCCN)NC(=O)COCCOCCNC(=O)COCCOCCNC(=O)CCCCCCCCCCCCCCC(=O)O)C(=O)N[C@H](C(=O)N[C@@H](CC(C)C)C(=O)N[C@@H](CC(C)C)C(=O)N[C@@H](CCCCN)C(=O)NCC(=O)N[C@@H](CC(C)C)C(=O)N[C@@H](CCC(=O)O)C(=O)N[C@H](C(=O)N[C@H](C(=O)N[C@@H](CC(N)=O)C(=O)N[C@@H](CC(=O)O)C(=O)N[C@@H](Cc1c[nH]c2ccccc12)C(=O)N[C@@H](Cc1c[nH]cn1)C(=O)N[C@@H](Cc1ccccc1)C(=O)N[C@H]1CSSC[C@@H](C(N)=O)NC(=O)[C@@H](CCCNC(=N)N)NC(=O)[C@H](CCCNC(=N)N)NC(=O)[C@@H](CCCCN)NC(=O)[C@H](CCCCN)NC(=O)[C@@H](CCCNC(=N)N)NC(=O)CNC(=O)[C@@H](CCCNC(=N)N)NC(=O)[C@H](CCCNC(=N)N)NC(=O)[C@@H](CCCNC(=N)N)NC1=O)[C@@H](C)CC)C(C)C)C(C)C [Agent 1] ({C16 diacid-AEEA-AEEA}-KKAKNIVLLKGLEVINDWHFC[dR]R[dR]G[dR]K[dK]R[dR]C-NH2; disulfide 21-31),"increase in exposure (AUC0-inf) compared to Agent 2, at equal dose",[1],~27 fold
same,C0,FIG. 10A,30500 ng/mL
same,Response Index (RI),CD4+ T cells,0.294
same,percentage antigenicity,CD4+ T cells,22.73%
